Reference: a melting point compilation (Tetko et al.; mined from patent text by program, amines drawn as free bases though some values may be those of a salt)

Compound	melting point [°C]
Cn1c(-c2ccc(-c3ccccn3)cc2)c(C(=O)N2CCC(OCC(=O)O)CC2)c(=O)n1-c1ccc(C#N)cc1	156 to 159
CCCCCCCNC(=O)Nc1ccccc1C(=O)NC1CCCNC1 (centres undefined)	165
COc1ccc(S(=O)(=O)N[C@@H](C(=O)OCc2ccccc2)C(C)C)cc1	92 to 94
CCc1nn(C2CCCCC2)c2cc(C(=O)O)ccc12	196 to 197
Cc1cccc(NC(=O)NC2N=C(c3ccccc3F)c3ccccc3N(CCC3OCCO3)C2=O)c1 (racemic)	214 to 215
COc1ccc(-c2c3cccc(C(F)(F)F)c3nn2CC(C)C)c(OC)c1	111 to 112
CON(C)C(=O)c1ccoc1	39 to 42
O=C1c2ccccc2C(=O)N1CC(=O)N1c2ccccc2N(Cc2ccccc2)C(=O)C(Cc2ccccc2)C1C(F)(F)F (centres undefined)	262 to 263
O=C(Cl)c1ccc(C#Cc2ccccc2F)o1	96 to 98
CCn1c(=O)c(-c2cc(OC)cc(OC)c2)cc2cnc(SC)nc21	120 to 122
CO/C=C(\Oc1cc(C#C[Si](C)(C)C)ccc1C)C(=O)OC	125
CNC(=O)n1nc(Oc2ncc(C(F)(F)F)cc2Cl)cc1C	85 to 86
CC(=O)OC(CCc1cc2cccnc2n(-c2cccc([N+](=O)[O-])c2)c1=O)c1ccncc1 (centres undefined)	69 to 71
COc1cc(NC2CCCCC2)c2ccccc2c1OC(C)=O	134 to 136
COc1ccc(-c2ccc3[nH]c4c(c3c2)CCN(C(=O)c2ccccc2)CC4)cc1	140 to 145
Cn1cncc1C(O)(c1ccc(Cl)cc1)c1ccc2c(c1)C(c1cccc(Cl)c1)SCC(=O)N2 (centres undefined)	210
CCCCOc1c(OC)cc(C(=O)O)cc1[N+](=O)[O-]	114 to 115
O=C1c2ccccc2-c2c1c1ccccc1c(=O)n2CCCCCNS(=O)(=O)c1ccc(Br)cc1	169 to 171
N#Cc1ccc2ccc(=O)oc2c1	217 to 225
O=C(Cc1ccc(Cl)cc1)c1cccs1	98 to 99
O=C(O)C(=O)c1ccc(OC/C=C/c2ccc3ccccc3c2)cc1	142 to 143
Cn1ccnc1C(O)(c1ccccc1)c1ccc(Cl)cc1 (centres undefined)	185 to 186
COc1cc(Nc2nccc(-c3ccc(N4CCNC(CCO)C4)nc3)n2)cc(OC)c1OC (centres undefined)	150 to 151

Compound	melting point [°C]
Cc1cc(-c2ccc(C(F)(F)F)cc2)cn2c(-c3cc(-c4ncon4)c(S(N)(=O)=O)s3)cnc12	285
O=C(O)c1c[nH]c(SCc2ccccc2)c1SCc1ccccc1	160 to 162
CC(=O)NC[C@H]1CN(c2ccc(-n3nccc3-c3cccc(Br)n3)c(F)c2)C(=O)O1	90.5 to 92.3
COc1cccc(C(C)N(C)CCCOc2ccc(S(=O)(=O)c3c(C(C)C)cn4ccccc34)cc2)c1 (centres undefined)	111 to 113
CCOC(=O)c1ncc2[nH]c3ccc(P(=O)(CC)CC)cc3c2n1	195 to 197
Cc1cc(C)c2c(c1Br)CC=C2	34
CC(=O)NC(C)CCC1CCN(c2nc3ccc(OCC4CC4)cc3o2)CC1 (centres undefined)	131 to 132
O=[N+]([O-])c1ccc(OCCCCl)cc1	37 to 39
CN(C)S(=O)(=O)c1c(C(F)(F)F)nn(-c2c(Cl)cc(C(F)(F)F)cc2Cl)c1N	178 to 179
COC(=O)[C@@]1(c2ccc(Br)cc2)CC1(c1ccccc1)c1ccccc1	82 to 85
CCOC(=O)c1cc2c([nH]1)CCCC2	70 to 72
O=C(Nc1ccc(C(F)(F)F)cc1)OCC1(COC(=O)Nc2ccc(C(F)(F)F)cc2)CSc2ccccc2C1=O	76 to 82
O=C1CSC=C(c2ccccc2)N1	150 to 155
CCCc1c(OCCCOc2ccc(C(=O)CCCCC(=O)O)cc2F)ccc(C(C)=O)c1O	106 to 107
O=C(NNc1ccc(NC(=S)Nc2ccc(NNC(=O)c3ccccc3)cc2)cc1)c1ccccc1	185 to 187
Cc1ccccc1C1C(C#N)=C(c2ccccc2)Nc2n[nH]cc21 (centres undefined)	246
CCCCCCS(=O)(=O)c1nnnn1CC(=O)OCC	40 to 42
O=C(O)C(O)=CC(=O)c1ccc(Cl)c(Cl)c1	180 to 181
CC(C)CC(Sc1c(Cl)cccc1Cl)c1c(O)cc(-c2ccccc2)oc1=O (centres undefined)	158 to 162
Cc1nn(-c2ccccn2)c2[nH]c3cc(F)c(F)cc3c(=O)c12	274 to 277
N#Cc1c(SSc2cn(-c3c(Cl)cc(C(F)(F)F)cc3Cl)c(Cl)c2C#N)cn(-c2c(Cl)cc(C(F)(F)F)cc2Cl)c1Cl	220
CC(=O)c1cc(F)ccc1Oc1nc2ccc(N=[N+]=[N-])cc2cc1Cc1ccccc1	127 to 130
CCOc1ccc2c(c1)n(C1CCCCC1)c(=O)n2S(=O)(=O)c1ccc(NC(=O)N(C)C(C)(C)C)cc1OC	208

Compound	melting point [°C]
CC(=O)C1CCC2=C(C1)C(=O)c1cc3ccccc3cc1C2=O (centres undefined)	189 to 192
Cn1c(C(C)(C)C)cn(N=Cc2cccnc2)c1=O	116 to 121
CC(C)Oc1ccc2c(c1)N(CCCN1CCC(CCO)CC1)c1cccc(S(C)(=O)=O)c1S2	50
CCCCc1nc2c(c(=O)[nH]1)CN(C(=O)OCc1ccccc1)CC2	117 to 122
CCOC(=O)Cc1c(C)n(Cc2ccccc2)c2ccc(O)cc12	122 to 125
CCOC(=O)C(=O)c1csc(NC(=O)Nc2c(C)cccc2C)n1	172 to 174
CCOC(=O)c1cc(CC)sc1Nc1ccccc1[N+](=O)[O-]	66 to 68
O=C1CCC(N2Cc3c(CNC(=O)c4ccco4)cccc3C2=O)C(=O)N1 (centres undefined)	219 to 221
CC(C)(C)c1ccc(S(=O)(=O)Nc2cc(OCCO)ncn2)cc1	169 to 170
CCOC(=O)CN(C(=O)N1CCN(c2cc(C)cc(C)c2)CC1)c1cc(C(C)O)c(C)nc1OC (centres undefined)	68 to 70
CS(=O)C=C1C(C)(C)CCC1(C)C (centres undefined)	74.7
CCSc1nccc(C)c1N	37 to 38
CN(C)C(=Nc1ccccc1N1CCOCC1)N1CCCCC1	88 to 90
CC12CC(=O)C3C(CCC4CC(=O)CCC43C)C1CCC2C(=O)CCl (centres undefined)	168 to 172
CC(=O)c1ccccc1-c1ccc(C(=O)N2Cc3ccc(C(=O)NCc4cccnc4)n3Cc3ccccc32)cc1	149 to 150
Cn1c(C(F)(F)F)cc(=O)n(-c2ccc([N+](=O)[O-])cc2F)c1=O	135 to 136
O=C(O)c1cnn2c(C(F)(F)F)cc(-c3ccc(F)c(F)c3)nc12	274
CSc1ncncc1C1c2cc(NS(=O)(=O)c3ccccc3)ccc2CC1(C)C (centres undefined)	174 to 176
CCc1cc(C#N)cc(C(=O)Nc2ccn(C)n2)n1	164
CN1C(C(=O)Nc2nc3ccccc3s2)=C(O)c2ccc3ccccc3c2S1(=O)=O	262
COC(=O)c1cnc2c3cc(NC(=O)CC(C)(C)C)ccc3ncn2c1=O	247 to 249
c1csc(-c2ccnc(-c3cc(-c4cccs4)ccn3)c2)c1	> 250
CCOC(=O)COc1cccc2c1CC(Br)C2=O (centres undefined)	60 to 63
